Read-outs that look alike come from different tables or passages of the source.
How the values were obtained:
[1] = test system: larvae of the mustard beetle (Phaedon cochleariae); assay: Phaedon cochleariae spray test; format: in vivo; conditions: application rate 500 g/ha, after 7 days
Experimental: Phaedon cochleariae—Spray Test
Solvent: 78.0 parts by weight of acetone • • 1.5 parts by weight of dimethylformamide
(§1) Emulsifier: alkylaryl polyglycol ether
To produce an appropriate active ingredient formulation, 1 part by weight of active ingredient is dissolved using the specified parts by weight of solvent and made up with water containing an emulsifier concentration of 1000 ppm until the desired concentration is attained. To produce further test concentrations, the preparation is diluted with emulsifier-containing water.
Discs of Chinese cabbage leaves (Brassica pekinensis) are sprayed with an active ingredient formulation of the desired concentration and, after drying, populated with larvae of the mustard beetle (Phaedon cochleariae).
After 7 days, the efficacy in % is determined. 100% means that all the beetle larvae have been killed; 0% means that no beetle larvae have been killed.

[2] = test system: engorged adult female cattle ticks (Boophilus microplus); assay: Boophilus microplus injection test; format: in vivo; conditions: application rate 20 μg/animal, assessed after 7 days
Experimental: Boophilus microplus—Injection Test
Solvent: dimethyl sulphoxide
To produce an appropriate active ingredient formulation, 10 mg of active ingredient are mixed with 0.5 ml of solvent and the concentrate is diluted with solvent to the desired concentration.
1 μl of the active ingredient solution is injected into the abdomen of 5 engorged adult female cattle ticks (Boophilus microplus). The animals are transferred into dishes and kept in a climate-controlled room.
The efficacy is assessed after 7 days by laying of fertile eggs. Eggs which are not visibly fertile are stored in a climate-controlled cabinet until the larvae hatch after about 42 days. An efficacy of 100% means that none of the ticks has laid any fertile eggs; 0% means that all the eggs are fertile.

[3] = test system: greenhouse red spider mite (Tetranychus urticae); assay: Tetranychus urticae spray test, OP-resistant (bean leaf discs); format: in vivo; conditions: after 6 days
Method in brief: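 Compound dissolved in acetone/DMF and diluted in water with 1000 ppm alkylaryl polyglycol ether emulsifier, then sprayed on bean leaf discs infested with all stages of OP-resistant T. urticae. Mortality in % scored after 6 days (100% = all mites killed).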

[4] = test system: southern root-knot nematode (Meloidogyne incognita); assay: Meloidogyne incognita test (sand, lettuce, acetone solvent, 14 days); format: in vivo; conditions: application rate 20 ppm, after 14 days
Method in brief: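 Active ingredient in acetone diluted with water, added to sand with nematode egg/larvae suspension and lettuce seeds. Efficacy scored after 14 days from root gall formation (100% = no galls; 0% = as untreated control).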

[5] = log P by reversed-phase HPLC analogously to OECD Guideline 117; format: physicochemical; conditions: for LogP[a] / chromatographic logP: [a] acidic range; for chromatographic logP: reversed-phase C18 HPLC column; for LogP[b]: [b] neutral range, pH 7.8, ammonium hydrogencarbonate/acetonitrile
Method in brief: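 Retention on reversed-phase C18 HPLC (LC-MS), acidic runs at pH 2.7 with formic acid or trifluoroacetic acid/acetonitrile gradients, neutral runs at pH 7.8 with 0.001 molar ammonium hydrogencarbonate/acetonitrile. log P obtained by linear interpolation of retention times against unbranched alkan-2-ones (C3–C16) of known log P.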

[6] = test system: adult cat fleas (Ctenocephalides felis); assay: Ctenocephalides felis in vitro contact test with adult cat fleas; format: in vivo; conditions: application rate 5 μg/cm^2 (=500 g/ha), after 48 h
Experimental: Ctenocephalides felis—In Vitro Contact Tests with Adult Cat Fleas
For the coating of the test tubes, 9 mg of active ingredient are first dissolved in 1 ml of acetone p.a. and then diluted to the desired concentration with acetone p.a. 250 μl of the solution are distributed homogeneously on the inner walls and base of a 25 ml test tube by turning and rocking on an orbital shaker (rocking rotation at 30 rpm for 2 h). With 900 ppm active ingredient solution and internal surface 44.7 cm^2, given homogeneous distribution, an area-based dose of 5 μg/cm^2 is achieved.
After the solvent has been evaporated off, the tubes are populated with 5-10 adult cat fleas (Ctenocephalides felis), sealed with a perforated plastic lid and incubated in a horizontal position at room temperature and ambient humidity. After 48 h, the efficacy is determined. To this end, the test tubes are stood upright and the fleas are knocked to the base of the tube. Fleas which remain motionless at the base or move in an uncoordinated manner are considered to be dead or moribund.
100% efficacy means that all the fleas were dead or moribund. 0% efficacy means that no fleas were harmed.

[7] = test system: green peach aphid (Myzus persicae); assay: Myzus persicae spray test (bell pepper plants); format: in vivo; conditions: application rate 20 ppm, after 6 days
Experimental: Myzus persicae—Spray Test
(§2) Solvent: 7 parts by weight of dimethylformamide
as §1
(§3) To produce an appropriate active ingredient formulation, 1 part by weight of active ingredient is dissolved using the specified parts by weight of solvent and made up with water containing an emulsifier concentration of 1000 ppm until the desired concentration is attained. To produce further test concentrations, the preparation is diluted with emulsifier-containing water. If the addition of ammonium salts or/and penetrants is required, these are each added in a concentration of 1000 ppm to the formulation solution.
Bell pepper plants (Capsicum annuum) heavily infested by the green peach aphid (Myzus persicae) are treated by spraying with the active ingredient formulation in the desired concentration.
After 6 days, the kill in % is determined. 100% means that all the aphids have been killed; 0% means that no aphids have been killed.

[8] = test system: greenhouse red spider mite (Tetranychus urticae); assay: Tetranychus urticae spray test, OP-resistant (bean plants); format: in vivo; conditions: application rate 20 ppm, after 7 days
Experimental: Tetranychus urticae—Spray Test, OP-Resistant
as §2, §1, §3
Bean plants (Phaseolus vulgaris) heavily infested by all stages of the greenhouse red spider mite (Tetranychus urticae) are treated by spraying with the active ingredient formulation in the desired concentration.
After 7 days, the efficacy in % is determined. 100% means that all the spider mites have been killed; 0% means that none of the spider mites have been killed.

[9] = test system: southern root-knot nematode (Meloidogyne incognita); assay: Meloidogyne incognita test (soil drench, lettuce, 21 days); format: in vivo; conditions: application rate 8 ppm, after 21 days
Experimental: Meloidogyne incognita Test
as §2
Emulsifier: 2.5 parts by weight of alkylaryl polyglycol ether
To produce an appropriate active ingredient formulation, 1 part by weight of active ingredient is mixed with the stated amounts of solvent and emulsifier, and the concentrate is diluted with water to the desired concentration, it being necessary to include the volume of soil which is drenched in the calculation. It should be noted that a concentration of 20 ppm of emulsifier in the soil is not exceeded. To produce further test concentrations, water is used for dilution.
Pots filled with soil (loamy sand) are watered with the active ingredient solution. An egg/larvae suspension of the southern root-knot nematode (Meloidogyne incognita) is added, lettuce seeds are scattered over the surface of the soil, and they are covered over with quartz sand. The lettuce seeds germinate and the plants develop. The galls develop on the roots
After 21 days, the nematicidal efficacy in % is determined by the formation of galls. 100% means that no galls have been found; 0% means that the number of galls on the treated plants corresponds to the untreated control.

[10] = pH 2.7, formic acid (or trifluoroacetic acid)/acetonitrile

Compound	efficacy (beetle larvae killed) [1] [%]	efficacy (no fertile eggs laid) [2] [%]	efficacy (spider mites killed) ([3]; application rate 500 g/ha) [%]	nematicidal efficacy (formation of galls) [4] [%]	LogP[a] [5, 10]	LogP[b] [5]	efficacy (spider mites killed) [8] [%]	other results
Cc1cc(F)c(-n2ncc(=O)n(CC(F)(F)F)c2=O)cc1SCC(F)(F)F [compound 10]	83	100	90	100	3.65	–	–	–
Cc1cc(F)c(-n2ncc(=O)n(C)c2=O)cc1[S+]([O-])CC(F)(F)F (stereo not drawn) [Ex. No. 2, 2-{2-Fluoro-4-methyl-5-[(2,2,2-trifluoroethyl)sulphinyl]phenyl}-4-methyl-1,2,4-triazine-3,5(2H,4H)-dione]	–	100	–	–	–	–	–	efficacy (fleas dead or moribund) [6]: 100%; pest or weed control at 500 g/ha ([3]; Tetranychus urticae, foliar, 144 h, application rate 500 g/ha, read-out: efficacy (spider mites killed)): 90%; pest or weed control at 20 ppm ([4]; Meloidogyne incognita, 336 h, read-out: nematicidal efficacy (formation of galls)): 90%; chromatographic logP ([5]; pH 2.7, running text, pH 2.7, read-out: log P[a]): 1.94; chromatographic logP ([5]; pH 2.7, table column, pH 2.7, formic acid (or trifluoroacetic acid)/acetonitrile, read-out: LogP[a]): 1.94
Cn1c(=O)cnn(-c2ccc(Cl)c(SCC(F)(F)F)c2)c1=O [compound 31]	–	–	–	–	3	2.91	–	efficacy (kill of aphids) [7]: 97%; efficacy (spider mites killed) ([3]; application rate 100 g/ha): 100%
Cc1cc(F)c(-n2ccc(=O)n(CC(F)(F)F)c2=O)cc1[S+]([O-])CC(F)(F)F (racemic) [compound 60]	100	–	–	100	2.31	2.34	100	–
Cc1cc(F)c(-n2ncc(=O)n(CC3CC3)c2=O)cc1SCC(F)(F)F [compound 25]	100	–	100	100	3.79	3.76	–	–
Cc1cc(F)c(-n2ncc(=O)n(C)c2=O)cc1[S+]([O-])CC(F)(F)F (single isomer, unassigned; (+)) [Ex. No. 29, (+)-2-[2-fluoro-4-methyl-5-(2,2,2-trifluoroethylsulphinyl)phenyl]-4-methyl-1,2,4-triazine-3,5-dione]	–	100	–	–	1.95	1.9	100	nematicidal efficacy (formation of galls) [9]: 100%
Cc1cc(F)c(-n2ncc(=O)n(CC(F)(F)F)c2=O)cc1[S+]([O-])CC(F)(F)F (single isomer, unassigned) [compound 50]	–	–	–	–	2.62	2.57	100	nematicidal efficacy (formation of galls) [9]: 99%
C#CCn1c(=O)ccn(-c2cc(SCC(F)(F)F)c(C)cc2F)c1=O [compound 79]	100	–	90	100	2.78	2.81	–	–

Reference: patent US9783509B2, “Six-membered C-N-linked aryl sulfide derivatives and aryl sulfoxide derivatives as pest conrol agents” (BAYER CROPSCIENCE AKTIENGESELLSCHAFT, priority 2013, dated 2017)
